# Measured values reported in ChEMBL document CHEMBL4350964, “Discovery of the theobromine derivative MQS-14 that induces death of MGC-803 cells mainly through ROS-mediated mechanisms” (Eur J Med Chem, 2019).
# Activity calls are given as the source filed them. The calls are words filed in the database; no cut-off is given here.
# Experiments:
# MGC-803 [1] = experiment: Cytotoxicity against human MGC803 cells assessed as growth inhibition at 20 uM after 48 hrs by MTT assay relative to control; format: functional; details: MGC-803, 48 h
# GES1 = experiment: Cytotoxicity against human GES-1 cells assessed as reduction in cell viability by MTT assay; format: cell-based
# MGC-803 [2] = experiment: Cytotoxicity against human MGC803 cells assessed as reduction in cell viability by MTT assay; format: functional, cell-based
# [3] = Selectivity ratio of IC50 for human GES-1 cells to IC50 for human MGC803 cells; format: toxicity; details: GES-1 cells and MGC803 cells, read-out: Ratio IC50
# SGC-7901 = experiment: Cytotoxicity against human SGC7901 cells assessed as reduction in cell viability by MTT assay; format: functional, cell-based
# HGC-27 = experiment: Cytotoxicity against human HGC27 cells assessed as reduction in cell viability by MTT assay; format: functional, cell-based
# MGC-803 [4] = experiment: Induction of apoptosis in human MGC803 cells assessed as viable cells at 9 uM after 24 hrs by Annexin-V-FITC/propidium iodide staining based flow cytometry (reference value: 90.4%); format: functional; details: MGC-803, 24 h, read-out: Activity
# MGC-803 [5] = experiment: Induction of apoptosis in human MGC803 cells assessed as early apoptotic cells at 9 uM after 24 hrs by Annexin-V-FITC/propidium iodide staining based flow cytometry (reference value: 6.4%); format: functional
# MGC-803 [6] = experiment: Effect on Cleaved PARP level in human MGC803 cells assessed decrease in cleaved PARP expression at 6 uM after 24 hrs in presence of NAC by Western blot analysis; format: functional, cell-based
# Homo sapiens [7] = species on record: Homo sapiens; experiment: Activation of MAPK signalling in human MGC803 cells assessed as change in p38 phosphorylation at 3 to 6 uM after 24 hrs by Western blot analysis; format: cell-based
# MGC-803 [8] = experiment: Antiproliferative activity against human MGC803 cells assessed as inhibition of cell proliferation preincubated for 16 hrs followed by Edu addition and measured after 8 hrs by Hoechst 33342 staining-based confocal laser scanning microscopic analysis; format: functional
# MGC-803 [9] = experiment: Induction of apoptosis in human MGC803 cells assessed as early apoptotic cells at 3 uM after 24 hrs by Annexin-V-FITC/propidium iodide staining based flow cytometry (reference value: 6.4%); format: functional
# MGC-803 [10] = experiment: Induction of apoptosis in human MGC803 cells assessed as necrotic cells at 9 uM after 24 hrs by Annexin-V-FITC/propidium iodide staining based flow cytometry (reference value: 1.5%); format: functional
# MGC-803 [11] = experiment: Induction of DNA damage in human MGC803 cells assessed as formation of DNA long tailing at 6 uM in presence of NAC by comet assay; format: functional, cell-based
# MGC-803 [12] = experiment: Cytotoxicity against human MGC803 cells assessed as reduction in cell viability at 6 uM after 24 hrs in presence of ROS scavenger N-acetyl-L-cysteine by MTT assay; format: functional, cell-based
# Homo sapiens [13] = species on record: Homo sapiens; experiment: Activation of MAPK signalling in human MGC803 cells assessed as increase in JNK phosphorylation at 3 to 6 uM after 24 hrs by Western blot analysis; format: cell-based
# Homo sapiens [14] = species on record: Homo sapiens; experiment: Activation of MAPK signalling in human MGC803 cells assessed as increase in JNK phosphorylation at 6 uM measured after 24 hrs in presence of NAC by Western blot analysis; format: cell-based
# MGC-803 [15] = experiment: Induction of apoptosis in human MGC803 cells assessed as late apoptotic cells at 9 uM after 24 hrs by Annexin-V-FITC/propidium iodide staining based flow cytometry (reference value: 1.8%); format: functional
# MGC-803 [16] = experiment: Induction of apoptosis in human MGC803 cells assessed as viable cells at 3 uM after 24 hrs by Annexin-V-FITC/propidium iodide staining based flow cytometry (reference value: 90.4%); format: functional; details: MGC-803, 24 h, read-out: Activity
# MGC-803 [17] = experiment: Induction of apoptosis in human MGC803 cells assessed as increase in cleaved caspase-9 expression up to 9 uM after 24 hrs by Western blot analysis; format: functional, cell-based
# MGC-803 [18] = experiment: Cytotoxicity in human MGC803 cells assessed as cell viability at 6 uM pretreated with pan-caspase inhibitor Z-VAD-fmk for 1 hr followed by compound addition and measured after 24 hrs by MTT assay relative to control; format: functional; details: read-out: Activity
# MGC-803 [19] = experiment: Induction of apoptosis in human MGC803 cells assessed as increase in cleaved PARP expression up to 9 uM after 24 hrs by Western blot analysis; format: functional, cell-based
# MGC-803 [20] = experiment: Induction of ROS generation in human MGC803 cells after 24 hrs by DCFH-DA dye based flow cytometry; format: functional, cell-based
# MGC-803 [21] = experiment: Induction of apoptosis in human MGC803 cells assessed as increase in cleaved caspase-3 expression up to 9 uM after 24 hrs by Western blot analysis; format: functional, cell-based
# MGC-803 [22] = experiment: Antiproliferative activity against human MGC803 cells assessed as inhibition of cell division measured after 24 hrs by CFDA-SE staining based flow cytometric analysis; format: functional
# MGC-803 [23] = experiment: Induction of apoptosis in human MGC803 cells assessed as increase in cleaved caspase-7 expression up to 9 uM after 24 hrs by Western blot analysis; format: functional, cell-based
# MGC-803 [24] = experiment: Effect on Cleaved caspase-7 level in human MGC803 cells assessed decrease in cleaved caspase-7 expression at 6 uM after 24 hrs in presence of NAC by Western blot analysis; format: functional, cell-based
# MGC-803 [25] = experiment: Induction of mitochondrial dysfunction in human MGC803 cells assessed as reduction in mitochondrial potential at 3 to 9 uM after 24 hrs by JC-1 staining based flow cytometry; format: functional, cell-based
# MGC-803 [26] = experiment: Induction of DNA damage in human MGC803 cells assessed as formation of DNA long tailing at 6 uM by comet assay; format: functional, cell-based
# MGC-803 [27] = experiment: Effect on Cleaved caspase-9 level in human MGC803 cells assessed decrease in cleaved caspase-9 expression at 6 uM after 24 hrs in presence of NAC by Western blot analysis; format: functional, cell-based
# MGC-803 [28] = experiment: Induction of apoptosis in human MGC803 cells assessed as necrotic cells at 3 uM after 24 hrs by Annexin-V-FITC/propidium iodide staining based flow cytometry (reference value: 1.5%); format: functional
# MGC-803 [29] = experiment: Induction of apoptosis in human MGC803 cells assessed as viable cells at 6 uM after 24 hrs by Annexin-V-FITC/propidium iodide staining based flow cytometry (reference value: 90.4%); format: functional; details: MGC-803, 24 h, read-out: Activity
# MGC-803 [30] = experiment: Induction of apoptosis in human MGC803 cells assessed as late apoptotic cells at 6 uM after 24 hrs by Annexin-V-FITC/propidium iodide staining based flow cytometry (reference value: 1.8%); format: functional
# Homo sapiens [31] = species on record: Homo sapiens; experiment: Activation of MAPK signalling in human MGC803 cells assessed as decrease in ERK phosphorylation at 3 to 6 uM after 24 hrs by Western blot analysis; format: cell-based
# MGC-803 [32] = experiment: Induction of apoptosis in human MGC803 cells assessed as necrotic cells at 6 uM after 24 hrs by Annexin-V-FITC/propidium iodide staining based flow cytometry (reference value: 1.5%); format: functional
# MGC-803 [33] = experiment: Induction of apoptosis in human MGC803 cells assessed as early apoptotic cells at 6 uM after 24 hrs by Annexin-V-FITC/propidium iodide staining based flow cytometry (reference value: 6.4%); format: functional
# MGC-803 [34] = experiment: Induction of apoptosis in human MGC803 cells assessed as late apoptotic cells at 3 uM after 24 hrs by Annexin-V-FITC/propidium iodide staining based flow cytometry (reference value: 1.8%); format: functional
# MGC-803 [35] = experiment: Cytotoxicity in human MGC803 cells assessed as cell viability at 6 uM after 24 hrs by MTT assay relative to control; format: functional; details: MGC-803, 24 h, read-out: Activity
# Homo sapiens [36] = species on record: Homo sapiens; experiment: Activation of MAPK signalling in human MGC803 cells assessed as decrease in ERK phosphorylation measured after 24 hrs in presence of NAC by Western blot analysis; format: cell-based
smiles,measurement,setting,value
C#CCN1CCN(C(=O)Cn2c(=O)c3c(ncn3C)n(C)c2=O)CC1,inhibition at 20 µM,MGC-803 [1],14.1%
CCCn1c(SCc2ccc([N+](=O)[O-])cc2)nc2c1c(=O)[nH]c(=O)n2C,inhibition at 20 µM,MGC-803 [1],19.8%
Cn1cnc2c1c(=O)n(CC(=O)N1CCOCC1)c(=O)n2C,inhibition at 20 µM,MGC-803 [1],19.9%
Cn1cnc2c1c(=O)n(CC(=O)N1CCN(C(=O)/C=C/c3ccccc3)CC1)c(=O)n2C,inhibition at 20 µM,MGC-803 [1],9.5%
Cn1cnc2c1c(=O)n(CC(=O)N1CCC(N3CCCCC3)CC1)c(=O)n2C,inhibition at 20 µM,MGC-803 [1],19.8%
Cn1cnc2c1c(=O)n(CC(=O)N1CCN(C(=O)OC(C)(C)C)CC1)c(=O)n2C,inhibition at 20 µM,MGC-803 [1],20%
Cn1cnc2c1c(=O)n(CC(=O)OC(C)(C)C)c(=O)n2C,inhibition at 20 µM,MGC-803 [1],17.2%
Cn1cnc2c1c(=O)n(CC(=O)O)c(=O)n2C,inhibition at 20 µM,MGC-803 [1],0.8%
CCCn1c(SCc2cccc(C)c2)nc2c1c(=O)[nH]c(=O)n2C,IC50,GES1,16 µM
same,IC50,MGC-803 [2],7.2 µM
same,selectivity ratio,[3],2 to 3
same,inhibition at 20 µM,MGC-803 [1],84.1%
same,IC50,SGC-7901,16 µM
same,IC50,HGC-27,10 µM
C=CC(=O)N1CCN(C(=O)Cn2c(=O)c3c(ncn3C)n(C)c2=O)CC1,inhibition at 20 µM,MGC-803 [1],1.3%
Cn1cnc2c1c(=O)n(CC(=O)N1CCN(Cc3ccc(Cl)cc3)CC1)c(=O)n2C,inhibition at 20 µM,MGC-803 [1],22.5%
CCCn1c(SCC(=O)Nc2ccc(C)cc2)nc2c1c(=O)[nH]c(=O)n2C,inhibition at 20 µM,MGC-803 [1],42.2%
Cn1cnc2c1c(=O)n(CC(=O)N1CCC(F)(F)CC1)c(=O)n2C,inhibition at 20 µM,MGC-803 [1],11.3%
CCCn1c(SCc2cccc(OC)c2)nc2c1c(=O)[nH]c(=O)n2C,inhibition at 20 µM,MGC-803 [1],34.2%
Cn1cnc2c1c(=O)n(CC(=O)N1CCCCC1)c(=O)n2C,inhibition at 20 µM,MGC-803 [1],16.8%
C=CCSc1nc2c(c(=O)[nH]c(=O)n2C)n1CCC,inhibition at 20 µM,MGC-803 [1],5.5%
CCCn1c(SCc2ccc(C(C)(C)C)cc2)nc2c1c(=O)[nH]c(=O)n2C,inhibition at 20 µM,MGC-803 [1],10.3%
CN1CCN(C(=O)Cn2c(=O)c3c(ncn3C)n(C)c2=O)CC1,inhibition at 20 µM,MGC-803 [1],8.6%
Cn1cnc2c1c(=O)n(CC(=O)N1CCSCC1)c(=O)n2C,inhibition at 20 µM,MGC-803 [1],5.6%
Cc1ccc(S(=O)(=O)N2CCN(C(=O)Cn3c(=O)c4c(ncn4C)n(C)c3=O)CC2)cc1,inhibition at 20 µM,MGC-803 [1],20.1%
CCCn1c(SCc2ccc(F)cc2)nc2c1c(=O)[nH]c(=O)n2C,IC50,GES1,14 µM
same,IC50,MGC-803 [2],5.4 µM
same,selectivity ratio,[3],2 to 3
same,inhibition at 20 µM,MGC-803 [1],86.5%
same,IC50,SGC-7901,15 µM
same,IC50,HGC-27,9.7 µM
CCCn1c(SCc2ccccc2C)nc2c1c(=O)[nH]c(=O)n2C,viability at 9 µM,MGC-803 [4],23.1%
same,Activity,MGC-803 [5],44%
same,Activity,MGC-803 [6],Active
same,Activity,Homo sapiens [7],Active
same,inhibition,MGC-803 [8],Dose-dependent effect
same,Activity,MGC-803 [9],25.4%
same,Activity,MGC-803 [10],0.9%
same,Activity,MGC-803 [11],inactive
same,Activity,MGC-803 [12],inactive
same,Activity,Homo sapiens [13],Active
same,Activity,Homo sapiens [14],inactive
same,Activity,MGC-803 [15],32%
same,IC50,GES1,13 µM
same,viability at 3 µM,MGC-803 [16],71.5%
same,IC50,MGC-803 [2],6.6 µM
same,Activity,MGC-803 [17],Active
same,viability at 6 µM,MGC-803 [18],93%
same,Activity,MGC-803 [19],Active
same,selectivity ratio,[3],2 to 3
same,Activity,MGC-803 [20],Dose-dependent effect
same,Activity,MGC-803 [21],Active
same,inhibition,MGC-803 [22],Dose-dependent effect
same,inhibition at 20 µM,MGC-803 [1],88.6%
same,Activity,MGC-803 [23],Active
same,Activity,MGC-803 [24],Active
same,Activity,MGC-803 [25],Dose-dependent effect
same,Activity,MGC-803 [26],Active
same,Activity,MGC-803 [27],Active
same,Activity,MGC-803 [28],1.5%
same,viability at 6 µM,MGC-803 [29],55%
same,Activity,MGC-803 [30],2.4%
same,Activity,Homo sapiens [31],Dose-dependent effect
same,Activity,MGC-803 [32],0.7%
same,Activity,MGC-803 [33],41.9%
same,Activity,MGC-803 [34],1.7%
same,viability at 6 µM,MGC-803 [35],66%
same,IC50,SGC-7901,15 µM
same,IC50,HGC-27,9.1 µM
same,Activity,Homo sapiens [36],inactive
O=c1[nH]cc(F)c(=O)[nH]1 [FLUOROURACIL],IC50,MGC-803 [2],14 µM
same,IC50,SGC-7901,21 µM
same,IC50,HGC-27,18 µM
Cn1cnc2c1c(=O)n(CC(=O)N1CCN(c3ccccc3)CC1)c(=O)n2C,inhibition at 20 µM,MGC-803 [1],4.6%
